In PubChem BioAssay (NCI):
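Tested at 5 concentrations; 48 h exposure; 96-well plates; endpoints linearly interpolated, else capped at highest concentration. GI50 marks 50% less growth. TGI marks complete inhibition of growth.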

Tests used:
Experiment in all cases: growth of human tumour cells (NCI), 48 h
SK-OV-3 ovarian = system: SK-OV-3 ovarian
U251 CNS = system: U251 CNS
MOLT-4 leukemia = system: MOLT-4 leukemia
DU-145 prostate = system: DU-145 prostate
SF-539 CNS = system: SF-539 CNS
OVCAR-8 ovarian = system: OVCAR-8 ovarian
RPMI-8226 leukemia = system: RPMI-8226 leukemia
T-47D breast = system: T-47D breast
PC-3 prostate = system: PC-3 prostate
HCT-116 colon = system: HCT-116 colon
NCI/ADR-RES ovarian = system: NCI/ADR-RES ovarian
SR leukemia = system: SR leukemia
HOP-62 NSCLC = system: HOP-62 NSCLC
CCRF-CEM leukemia = system: CCRF-CEM leukemia
CAKI-1 renal = system: CAKI-1 renal
MDA-MB-231 breast = system: MDA-MB-231 breast
HOP-92 NSCLC = system: HOP-92 NSCLC
MCF7 breast = system: MCF7 breast
SN12C renal = system: SN12C renal
HL-60(TB) leukemia = system: HL-60(TB) leukemia
KM12 colon = system: KM12 colon
HT29 colon = system: HT29 colon
ACHN renal = system: ACHN renal
IGROV1 ovarian = system: IGROV1 ovarian
MDA-MB-435 = system: MDA-MB-435
MALME-3M melanoma = system: MALME-3M melanoma
SK-MEL-2 melanoma = system: SK-MEL-2 melanoma
OVCAR-5 ovarian = system: OVCAR-5 ovarian
NCI-H226 lung = system: NCI-H226 lung
OVCAR-4 ovarian = system: OVCAR-4 ovarian
SK-MEL-28 melanoma = system: SK-MEL-28 melanoma
TK-10 renal = system: TK-10 renal
BT-549 breast = system: BT-549 breast
NCI-H522 lung = system: NCI-H522 lung
SNB-19 CNS = system: SNB-19 CNS
NCI-H23 lung = system: NCI-H23 lung
HS 578T breast = system: HS 578T breast
SW-620 colon = system: SW-620 colon
LOX IMVI melanoma = system: LOX IMVI melanoma
786-0 renal = system: 786-0 renal
M14 melanoma = system: M14 melanoma
HCT-15 colon = system: HCT-15 colon
UACC-62 melanoma = system: UACC-62 melanoma
OVCAR-3 ovarian = system: OVCAR-3 ovarian
SNB-75 CNS = system: SNB-75 CNS
UACC-257 melanoma = system: UACC-257 melanoma
UO-31 renal = system: UO-31 renal
SK-MEL-5 melanoma = system: SK-MEL-5 melanoma
SF-268 CNS = system: SF-268 CNS
EKVX NSCLC = system: EKVX NSCLC
K-562 leukemia = system: K-562 leukemia
A549 NSCLC = system: A549 NSCLC
SF-295 CNS = system: SF-295 CNS
COLO 205 colon = system: COLO 205 colon
NCI-H460 lung = system: NCI-H460 lung
RXF 393 renal = system: RXF 393 renal
A498 renal = system: A498 renal

## CC(C)(C)[Si](C)(C)OCCC1CC2(S(=O)(=O)C3=CC=C=C=C3)ON1CC2S(=O)(=O)c1ccccc1 (centres undefined)
SK-OV-3 ovarian
  TGI: > 100 µM
U251 CNS
  TGI: > 100 µM

## COc1cc(/C=C2\CCCC3=C2N=C2SC(C)=CN2C3c2cc(OC)c(OC)c(OC)c2)cc(OC)c1OC (centres undefined)
MOLT-4 leukemia
  GI50: 1.77 µM
  TGI: 6.43 µM
DU-145 prostate
  GI50: 2.76 µM
  TGI: > 100 µM
SF-539 CNS
  GI50: 3.09 µM
  TGI: > 100 µM
OVCAR-8 ovarian
  GI50: 0.385 µM
  TGI: 3.09 µM
RPMI-8226 leukemia
  GI50: 0.391 µM
  TGI: 2.11 µM
T-47D breast
  GI50: 3.16 µM
  TGI: > 100 µM
PC-3 prostate
  GI50: 2.19 µM
  TGI: > 100 µM
HCT-116 colon
  GI50: 0.692 µM
  TGI: 2.01 µM
NCI/ADR-RES ovarian
  GI50: 0.334 µM
  TGI: > 100 µM
SR leukemia
  GI50: 0.399 µM
  TGI: 2.01 µM
HOP-62 NSCLC
  GI50: 1.89 µM
  TGI: > 100 µM
CCRF-CEM leukemia
  GI50: 0.615 µM
  TGI: 4.14 µM
CAKI-1 renal
  GI50: 2.55 µM
  TGI: > 100 µM
MDA-MB-231 breast
  GI50: 2.88 µM
  TGI: > 100 µM
HOP-92 NSCLC
  GI50: 1.46 µM
  TGI: 4.27 µM
MCF7 breast
  GI50: 2.98 µM
  TGI: > 100 µM
SN12C renal
  GI50: 2.44 µM
  TGI: > 100 µM

## Oc1cc2c(cc1C(c1ccc3c(c1)OCO3)N1CCN(C(c3ccc4c(c3)OCO4)c3cc4c(cc3O)OCO4)CC1)OCO2 (centres undefined)
HL-60(TB) leukemia
  TGI: > 100 µM
KM12 colon
  TGI: 30.8 µM
HT29 colon
  TGI: 18.8 µM
MOLT-4 leukemia
  TGI: 28.4 µM
ACHN renal
  TGI: 26.6 µM
IGROV1 ovarian
  TGI: 35.7 µM
DU-145 prostate
  TGI: 41.3 µM
MDA-MB-435
  TGI: 35 µM
MALME-3M melanoma
  TGI: 38.9 µM
SK-MEL-2 melanoma
  TGI: 41.6 µM
SK-OV-3 ovarian
  TGI: 94.8 µM
OVCAR-5 ovarian
  TGI: 32.6 µM
NCI-H226 lung
  TGI: 29.6 µM
OVCAR-4 ovarian
  TGI: 16.5 µM
SK-MEL-28 melanoma
  TGI: 8.46 µM
TK-10 renal
  TGI: 43.8 µM
BT-549 breast
  TGI: 45.1 µM
NCI-H522 lung
  TGI: 33.5 µM
SNB-19 CNS
  TGI: 43.6 µM
NCI-H23 lung
  TGI: 35.4 µM
SF-539 CNS
  TGI: 33.9 µM
HS 578T breast
  TGI: 30.5 µM
U251 CNS
  TGI: 28.7 µM
SW-620 colon
  TGI: 25.3 µM
OVCAR-8 ovarian
  TGI: 29.9 µM
LOX IMVI melanoma
  TGI: 18.7 µM
786-0 renal
  TGI: 25.8 µM
T-47D breast
  TGI: 34.6 µM
M14 melanoma
  TGI: 27.5 µM
PC-3 prostate
  TGI: > 100 µM
HCT-15 colon
  TGI: 20.3 µM
UACC-62 melanoma
  TGI: 27.5 µM
HCT-116 colon
  TGI: 29.1 µM
OVCAR-3 ovarian
  TGI: 30.8 µM
NCI/ADR-RES ovarian
  TGI: 55.4 µM
SR leukemia
  TGI: 14.6 µM
SNB-75 CNS
  TGI: 13.7 µM
UACC-257 melanoma
  TGI: 33.4 µM
UO-31 renal
  TGI: 29.3 µM
SK-MEL-5 melanoma
  TGI: 37.9 µM
HOP-62 NSCLC
  TGI: 64.7 µM
SF-268 CNS
  TGI: 59.3 µM
EKVX NSCLC
  TGI: 98.6 µM
CAKI-1 renal
  TGI: 47.9 µM
MDA-MB-231 breast
  TGI: 29.1 µM
K-562 leukemia
  TGI: 65.1 µM
HOP-92 NSCLC
  TGI: 78.3 µM
A549 NSCLC
  TGI: > 100 µM
MCF7 breast
  TGI: > 100 µM
SF-295 CNS
  TGI: 33.2 µM
COLO 205 colon
  TGI: 90.8 µM
SN12C renal
  TGI: 31 µM
NCI-H460 lung
  TGI: > 100 µM
RXF 393 renal
  TGI: > 100 µM

## COc1ccccc1Nc1nc2ccccc2c2occc12
HL-60(TB) leukemia
  GI50: 20.5 µM
  TGI: > 50 µM
KM12 colon
  GI50: 16.1 µM
  TGI: > 50 µM
ACHN renal
  GI50: 10.6 µM
  TGI: 24.8 µM
IGROV1 ovarian
  GI50: 14 µM
  TGI: 39.5 µM
DU-145 prostate
  GI50: 16.9 µM
  TGI: > 50 µM
MDA-MB-435
  GI50: 19.1 µM
  TGI: > 50 µM
A498 renal
  GI50: 21.2 µM
  TGI: 43.1 µM
SK-MEL-2 melanoma
  GI50: 12 µM
  TGI: 28.2 µM
SK-OV-3 ovarian
  GI50: 16.1 µM
  TGI: > 50 µM
OVCAR-5 ovarian
  GI50: 19.4 µM
  TGI: 39.2 µM
OVCAR-4 ovarian
  GI50: 4.13 µM
  TGI: 19.3 µM
SK-MEL-28 melanoma
  GI50: 8.3 µM
  TGI: 40.2 µM
TK-10 renal
  GI50: 18.8 µM
  TGI: > 50 µM
BT-549 breast
  GI50: 15.3 µM
  TGI: 32.1 µM
NCI-H522 lung
  GI50: 12 µM
  TGI: 29.7 µM
SNB-19 CNS
  GI50: 14.5 µM
  TGI: > 50 µM
NCI-H23 lung
  GI50: 16.3 µM
  TGI: 35.9 µM
SF-539 CNS
  GI50: 9.76 µM
  TGI: 21.5 µM
HS 578T breast
  GI50: 22.1 µM
  TGI: 49 µM
U251 CNS
  GI50: 14.5 µM
  TGI: > 50 µM
SW-620 colon
  GI50: 22.6 µM
  TGI: > 50 µM
OVCAR-8 ovarian
  GI50: 17.6 µM
  TGI: > 50 µM
RPMI-8226 leukemia
  GI50: 20.6 µM
  TGI: > 50 µM
LOX IMVI melanoma
  GI50: 9.28 µM
  TGI: 17.4 µM
786-0 renal
  GI50: 15.3 µM
  TGI: 38.7 µM
T-47D breast
  GI50: 27.5 µM
  TGI: > 50 µM
M14 melanoma
  GI50: 17.3 µM
  TGI: 40.4 µM
PC-3 prostate
  GI50: 18.8 µM
  TGI: > 50 µM
HCT-15 colon
  GI50: 10.5 µM
  TGI: 27 µM
UACC-62 melanoma
  GI50: 10.1 µM
  TGI: 26.4 µM
HCT-116 colon
  GI50: 20.8 µM
  TGI: > 50 µM
OVCAR-3 ovarian
  GI50: 20.2 µM
  TGI: > 50 µM
NCI/ADR-RES ovarian
  GI50: 13.8 µM
  TGI: 32.4 µM
SR leukemia
  GI50: 9.33 µM
  TGI: 20.3 µM
UACC-257 melanoma
  GI50: 14.3 µM
  TGI: 35.7 µM
UO-31 renal
  GI50: 14.7 µM
  TGI: 24 µM
SK-MEL-5 melanoma
  GI50: 12.2 µM
  TGI: 27.7 µM
HOP-62 NSCLC
  GI50: 24.5 µM
  TGI: > 50 µM
SF-268 CNS
  GI50: 12.3 µM
  TGI: > 50 µM
CCRF-CEM leukemia
  GI50: 27.9 µM
  TGI: > 50 µM
EKVX NSCLC
  GI50: 11.9 µM
  TGI: 28.1 µM
CAKI-1 renal
  GI50: 18 µM
  TGI: > 50 µM
MDA-MB-231 breast
  GI50: 10.9 µM
  TGI: 29.1 µM
K-562 leukemia
  GI50: 12.9 µM
  TGI: 28 µM
HOP-92 NSCLC
  GI50: 24.1 µM
  TGI: > 50 µM
A549 NSCLC
  GI50: 14.6 µM
  TGI: 41.4 µM
MCF7 breast
  GI50: 15.9 µM
  TGI: > 50 µM
SF-295 CNS
  GI50: 20.1 µM
  TGI: > 50 µM
COLO 205 colon
  GI50: 12.6 µM
  TGI: > 50 µM
SN12C renal
  GI50: 10.7 µM
  TGI: 33.8 µM
NCI-H460 lung
  GI50: 8.09 µM
  TGI: 18 µM
RXF 393 renal
  GI50: 13.1 µM
  TGI: 23.9 µM
